Reference: ChEMBL document CHEMBL4480433, “Investigation of B,C-ring truncated deguelin derivatives as heat shock protein 90 (HSP90) inhibitors for use as anti-breast cancer agents” (Bioorg Med Chem, 2019)
Active and inactive are the calls of the source. No cut-off for these calls is given here.

How the values were obtained:
[1] = target: T1, Heat shock protein HSP90 (Homo sapiens) (UniProt P07900+P08238); assay: Inhibition of HSP90 in human H1299 cells assessed as reduction in HIF-1alpha at 100 nM incubated for 72 hrs and subsequently incubated under hypoxic conditions for 12 hrs by Western blot analysis relative to control; assay type: cell-based; conditions: values are per cent of control
[2] = target: T1, Heat shock protein HSP90 (Homo sapiens); assay: Inhibition of HSP90 in human H1299 cells assessed as reduction in HIF-1alpha at 10 nM incubated for 72 hrs and subsequently incubated under hypoxic conditions for 12 hrs by Western blot analysis relative to control; assay type: cell-based; conditions: values are per cent of control
[3] = target: T1, Heat shock protein HSP90 (Homo sapiens); assay: Inhibition of HSP90 in human H1299 cells assessed as reduction in HIF-1alpha incubated for 72 hrs and subsequently incubated under hypoxic conditions for 12 hrs by Western blot analysis relative to control; assay type: cell-based
MDA-MB-231 [4] = assay: Cytotoxicity against human MDA-MB-231 cells at 10 uM after 72 hrs by MTS assay; assay type: functional, cell-based
4T1 = assay: Cytotoxicity against mouse 4T1 cells at 10 uM after 72 hrs by MTS assay; assay type: functional, cell-based
MDA-MB-231 [5] = assay: Induction of morphological changes in human MDA-MB-231 cells assessed as cytoplasmic shrinkage at 2 to 10 uM after 72 hrs by phase contrast microscopic analysis; assay type: functional, cell-based
MDA-MB-231 [6] = assay: Inhibition of HSP90 in human MDA-MB-231 cells assessed as reduction in phosphorylated-AKT/total-AKT ratio at 5 to 10 uM after 72 hrs by immunoblot analysis; assay type: cell-based
MDA-MB-231 [7] = assay: Inhibition of HSP90 in human MDA-MB-231 cells assessed as reduction in phosphorylated-MEK/total-MEK ratio at 5 to 10 uM after 72 hrs by immunoblot analysis; assay type: cell-based; conditions: Hofmanni bacterium
MDA-MB-231 [8] = assay: Inhibition of HSP90 in human MDA-MB-231 cells assessed as reduction in phosphorylated-STAT3/total-STAT3 ratio at 5 to 10 uM after 72 hrs by immunoblot analysis; assay type: cell-based
MDA-MB-231 [9] = assay: Effect on ERK protein level in human MDA-MB-231 cells at 2 to 10 uM after 72 hrs by immunoblot analysis; assay type: functional, cell-based
MDA-MB-231 [10] = assay: Inhibition of ERK phosphorylation in human MDA-MB-231 cells at 5 to 10 uM after 72 hrs by immunoblot analysis; assay type: cell-based

SMILES	response, % of control [1] [%]	response, % of control [2] [%]	other results
COc1ccc(N(Cc2ccccc2)C(=O)c2ccc3c(c2OC)C=CC(C)(C)O3)c(F)c1OC	60.8		
COc1ccc(N(Cc2ccc(Cl)cc2)C(=O)c2ccc3c(c2OC)C=CC(C)(C)O3)nc1OC	57.6		
COc1ccc(N(CCO)C(=O)c2ccc3c(c2OC)C=CC(C)(C)O3)c(F)c1OC	124		
COc1ccc(N(CCN(C)C)C(=O)c2ccc3c(c2OC)C=CC(C)(C)O3)c(F)c1OC	53.3	97.9	
COc1ccc(N(CCCN)C(=O)c2ccc3c(c2OC)C=CC(C)(C)O3)c(F)c1OC	68.5		
COc1ccc(N(CCO)C(=O)c2ccc3c(c2OC)C=CC(C)(C)O3)nc1OC	87.9		
COc1ccc(N(CCOCc2ccccc2)C(=O)c2ccc3c(c2OC)C=CC(C)(C)O3)nc1OC	57.2	69.3	inhibition [3]: Dose-dependent effect
COc1ccc(N(CCCNC(C)=O)C(=O)c2ccc3c(c2OC)C=CC(C)(C)O3)nc1OC	76.6		
COc1ccc(N(CCN)C(=O)c2ccc3c(c2OC)C=CC(C)(C)O3)c(F)c1OC	147		
COc1ccc(N(Cc2cccc(F)c2)C(=O)c2ccc3c(c2OC)C=CC(C)(C)O3)nc1OC	85.7		
COc1ccc(N(C(=O)c2ccc3c(c2OC)C=CC(C)(C)O3)c2ccccc2)cc1OC	52.8	83.7	
COc1ccc(N(CCC2CCNCC2)C(=O)c2ccc3c(c2OC)C=CC(C)(C)O3)nc1OC	55.2	97.2	
COc1ccc(NC(=O)c2ccc3c(c2OC)C=CC(C)(C)O3)nc1OC	88.4		
COc1ccc(N(CCCN)C(=O)c2ccc3c(c2OC)C=CC(C)(C)O3)nc1OC	45.3	111	
COc1ccc(N(CCCN(C)C)C(=O)c2ccc3c(c2OC)C=CC(C)(C)O3)nc1OC	44	65.6	inhibition [3]: Dose-dependent effect
CNCCN(C(=O)c1ccc2c(c1OC)C=CC(C)(C)O2)c1ccc(OC)c(OC)n1	41.2	93	
COc1ccc(N(C(=O)c2ccc3c(c2OC)C=CC(C)(C)O3)c2ccc(OC)c(OC)c2)cc1	61.9		
COc1ccc(N(C(=O)c2ccc3c(c2OC)C=CC(C)(C)O3)c2ccc(C)cc2)cc1OC	58.9		
COc1ccc(N(CCN(C)C)C(=O)c2ccc3c(c2OC)C=CC(C)(C)O3)nc1OC	37.9	75.5	inhibition [3]: Dose-dependent effect
COc1ccc(N(CCNC(C)=O)C(=O)c2ccc3c(c2OC)C=CC(C)(C)O3)nc1OC	58.1	66	inhibition [3]: Dose-dependent effect
COCCN(C(=O)c1ccc2c(c1OC)C=CC(C)(C)O2)c1ccc(OC)c(OC)n1	52.5		

SMILES	response, % of control [1] [%]	response, % of control [2] [%]	other results
COc1ccc(N(C)C(=O)c2ccc3c(c2OC)C=CC(C)(C)O3)nc1OC	62.3	90.4	
COc1ccc(N(Cc2ccccc2)C(=O)c2ccc3c(c2OC)C=CC(C)(C)O3)nc1OC	38.6	83.4	
COc1ccc(N(Cc2cccc(Cl)c2)C(=O)c2ccc3c(c2OC)C=CC(C)(C)O3)nc1OC	80.2		
COc1ccc(N(CCOCc2ccccc2)C(=O)c2ccc3c(c2OC)C=CC(C)(C)O3)c(F)c1OC	65.4		
COc1ccc(NC(=O)c2ccc3c(c2OC)C=CC(C)(C)O3)cc1OC	147		
COc1ccc(N(CCNC(=O)OC(C)(C)C)C(=O)c2ccc3c(c2OC)C=CC(C)(C)O3)nc1OC	57.4		
COc1ccc(N(CCN)C(=O)c2ccc3c(c2OC)C=CC(C)(C)O3)nc1OC	33.3	64	inhibition [3]: Dose-dependent effect
CCN(CC)CCN(C(=O)c1ccc2c(c1OC)C=CC(C)(C)O2)c1ccc(OC)c(OC)n1	64.4		
COCCN(C(=O)c1ccc2c(c1OC)C=CC(C)(C)O2)c1ccc(OC)c(OC)c1F	59.3		
COc1ccc(N(Cc2ccncc2)C(=O)c2ccc3c(c2OC)C=CC(C)(C)O3)nc1OC	55.2	108	
COc1ccc(N(Cc2ccc(C)cc2)C(=O)c2ccc3c(c2OC)C=CC(C)(C)O3)nc1OC	71.1		
COc1ccc(N(Cc2ccc(F)cc2)C(=O)c2ccc3c(c2OC)C=CC(C)(C)O3)nc1OC	63.1	104	
COc1ccc(N(C(=O)c2ccc3c(c2OC)C=CC(C)(C)O3)c2ccc(F)cc2)cc1OC	70.2		
COc1ccc(N(Cc2ccccn2)C(=O)c2ccc3c(c2OC)C=CC(C)(C)O3)nc1OC	97		
COc1ccc(NC(=O)c2ccc3c(c2OC)C=CC(C)(C)O3)c(F)c1OC	101		
COc1ccc(N(C(=O)c2ccc3c(c2OC)C=CC(C)(C)O3)c2ccc(Cl)cc2)cc1OC	81.2		
CNCCN(C(=O)c1ccc2c(c1OC)C=CC(C)(C)O2)c1ccc(OC)c(OC)c1F	107		
COc1ccc(CN(C(=O)c2ccc3c(c2OC)C=CC(C)(C)O3)c2ccc(OC)c(OC)n2)cc1	77		
COc1ccc(N(C)C(=O)c2ccc3c(c2OC)C=CC(C)(C)O3)c(F)c1OC	93.1		
COc1ccc(N(Cc2cccnc2)C(=O)c2ccc3c(c2OC)C=CC(C)(C)O3)nc1OC	95.8		

Now from value to molecule, other results behind:

response, % of control [1] [%]	response, % of control [2] [%]	SMILES	other results
48.8	111	COc1ccc(N(CCN2CCOCC2)C(=O)c2ccc3c(c2OC)C=CC(C)(C)O3)c(F)c1OC	
61.9		COc1ccc(N(CCN2CCN(C)CC2)C(=O)c2ccc3c(c2OC)C=CC(C)(C)O3)cc1OC	
65.5		COCCN(C(=O)c1ccc2c(c1OC)C=CC(C)(C)O2)c1ccc(OC)c(OC)c1	
54.3		COc1ccc(N(CCN2CCCCC2)C(=O)c2ccc3c(c2OC)C=CC(C)(C)O3)c(F)c1OC	
71		COc1ccc(N(CCN(C)C)C(=O)c2ccc3c(c2OC)C=CC(C)(C)O3)cc1OC	
79.7		COc1ccc(N(CCN2CCCCC2)C(=O)c2ccc3c(c2OC)C=CC(C)(C)O3)nc1OC	
53.7	81.2	COc1ccc(N(CCN2CCN(C)CC2)C(=O)c2ccc3c(c2OC)C=CC(C)(C)O3)c(F)c1OC	
133		COc1ccc(N(CCO)C(=O)c2ccc3c(c2OC)C=CC(C)(C)O3)cc1OC	
66		COc1ccc(N(CCN2CCCC2)C(=O)c2ccc3c(c2OC)C=CC(C)(C)O3)nc1OC	
83.7		COc1ccc(N(CCN2CCCCC2)C(=O)c2ccc3c(c2OC)C=CC(C)(C)O3)cc1OC	
70.3		COc1ccc(N(CCNC(=O)OC(C)(C)C)C(=O)c2ccc3c(c2OC)C=CC(C)(C)O3)cc1OC	
127		COc1ccc(N(CCNC(C)=O)C(=O)c2ccc3c(c2OC)C=CC(C)(C)O3)cc1OC	
39.4	62.1	COc1ccc(N(CCN)C(=O)c2ccc3c(c2OC)C=CC(C)(C)O3)cc1OC	inhibition [3]: Dose-dependent effect
42.2	97.2	COc1ccc(N(CCN2CCN(C)CC2)C(=O)c2ccc3c(c2OC)C=CC(C)(C)O3)nc1OC	
117		COc1ccc(N(CCN2CCOCC2)C(=O)c2ccc3c(c2OC)C=CC(C)(C)O3)cc1OC	
69.8		COc1ccc(N(Cc2ccccc2)C(=O)c2ccc3c(c2OC)C=CC(C)(C)O3)cc1OC	
59.4		COc1ccc(N(CCN2CCNCC2)C(=O)c2ccc3c(c2OC)C=CC(C)(C)O3)nc1OC	
75.9		CNCCN(C(=O)c1ccc2c(c1OC)C=CC(C)(C)O2)c1ccc(OC)c(OC)c1	
54.9		COc1ccc(N(CCN2CCNCC2)C(=O)c2ccc3c(c2OC)C=CC(C)(C)O3)c(F)c1OC	
60.3	72.9	COc1ccc(N(CCN2CCOCC2)C(=O)c2ccc3c(c2OC)C=CC(C)(C)O3)nc1OC	inhibition [3]: Dose-dependent effect
100		COc1ccc(N(CCCN)C(=O)c2ccc3c(c2OC)C=CC(C)(C)O3)cc1OC	
51.9	60.6	COc1ccc(N(CCN2CCNCC2)C(=O)c2ccc3c(c2OC)C=CC(C)(C)O3)cc1OC	inhibition [3]: Dose-dependent effect; Activity (MDA-MB-231 [4]): Active; Activity (4T1): Active; Activity (MDA-MB-231 [5]): Active; inhibition (MDA-MB-231 [6]): Active; inhibition (MDA-MB-231 [7]): Active; inhibition (MDA-MB-231 [8]): Active; Activity (MDA-MB-231 [9]): inactive; inhibition (MDA-MB-231 [10]): Active
126		COc1ccc(N(C)C(=O)c2ccc3c(c2OC)C=CC(C)(C)O3)cc1OC	
74.4		COc1ccc(N(CCOCc2ccccc2)C(=O)c2ccc3c(c2OC)C=CC(C)(C)O3)cc1OC	
